Laboratory results published in patent US20250057873A1, “Intestinal Tumor Suppressor, PGE2 Production Inhibitor, and IL-22BP Production Promoter” (TOKYO UNIVERSITY OF SCIENCE FOUNDATION, priority 2021, published 2025).

Legend:
[1] = test system: intestinal polyp-infiltrating cells; assay: PGE2 stimulation of intestinal polyp-infiltrating cells of Apc^Min/+ mice, qPCR; type: cell-based, mouse; details: PGE2 20 hours
Description: FIG. 6i: Tumor-infiltrating cells of the Apc^Min/+ mice (n=2, cells that were pooled during collection) were collected, stimulated with indicated doses of PGE2 for 20 hours, and then the expression of indicated genes was measured by qPCR. The data are mean±SD of 3 wells.
(§1) Infiltrating cells in mouse/human colorectal tumor/non-tumor tissues (2×10^5) or mouse/human colorectal tumor/non-tumor tissue pieces (3 mm×3 mm cut) were cultured with Dectin-1 ligands Curdlan, OXCA, or laminarin, or with PGE2 stimulation for 20 h at 37° C. under 5% CO2 in 96-well flat-bottomed plates (Falcon, Becton Dickinson) in a volume of 0.2 ml RPMI containing 10% FBS and 1% streptomycin plus penicillin. After the culture, cells or tissues were collected and mRNA expression of tumor- or anti-tumor-associated genes was measured by qPCR described in Quantitative reverse transcription PCR section described later.
(§2) Total RNA was extracted with Mammalian Total RNA Miniprep kit (Sigma Aldrich). […]

[2] = test system: CRC tumor tissues; assay: Human CRC tumor tissues cultured in the presence of PGE2, qPCR; type: cell-based
Description: FIG. 7i: Tumor tissues of CRC patients were collected, minced, and then cultured in the presence of PGE2 for 20 hours. Data are mean±SD of 3 wells. The data in (FIGS. 7g to 7i) are representative of two independent experiments. *p<0.05, **p<0.01, and ****p<0.0001.
as §1, §2

[3] = test system: colorectal polyps; assay: PGE2 administration to DSS-treated Apc^Min/+Clec7a^-/- mice; type: in vivo, mouse
Description: (§3) FIG. 6e: 8-week-old Apc^Min/+Clec7a^−/− mice (n=3) were administered with 2% by mass of DSS for 1 week, and then were administered with PGE2 ([…]) or PBS intraperitoneally every other day for 4 weeks. After euthanization, generation of colorectal polyps in the Apc^Min/+Clec7a^−/− mice with or without PGE2 treatment was examined in comparison to that of the Apc^Min/+ mice (n=3/group).
as §3, with “6f:” for “6e:”, “without the” for “without”
FIG. 6g: 8-week-old Apc^Min/+Clec7a^−/− mice (n=3) were administered with 2% by mass of DSS for 1 week, and then were administered with PGE2 ([…]) or PBS intraperitoneally every other day for 4 weeks. After euthanization, populations of MHC-II^+CD11c^+DCs and MHC-II^−CD11b^+MDSCs in the polyps in the Apc^Min/+Clec7a^−/− mice were measured by flow cytometry (n=3/group).
FIG. 6h: 8-week-old Apc^Min/+Clec7a^−/− mice (n=3) were administered with 2% by mass of DSS for 1 week, and then administered with PGE2 ([…]) or PBS intraperitoneally every other day for 4 weeks. After euthanization, expression of indicated genes in the Apc^Min/+Clec7a^−/− mice was examined by qPCR (n=3/group).
Apc^Min/+ or Apc^Min/+Clec7a^−/− mice were normally raised in SPF condition for 19 to 21 weeks after being born, and polyps in small intestines emerged spontaneously. For the induction of colorectal tumor, same mice with 6 to 7 weeks old were treated with 1% by mass DSS for 1 week, and then were normally raised for another 4 to 5 weeks before sacrifice.

[4] = molecular target: T1, COX-2 (Homo sapiens, UniProt P35354); details: cited from earlier work
T1 sequence (P35354 18-604): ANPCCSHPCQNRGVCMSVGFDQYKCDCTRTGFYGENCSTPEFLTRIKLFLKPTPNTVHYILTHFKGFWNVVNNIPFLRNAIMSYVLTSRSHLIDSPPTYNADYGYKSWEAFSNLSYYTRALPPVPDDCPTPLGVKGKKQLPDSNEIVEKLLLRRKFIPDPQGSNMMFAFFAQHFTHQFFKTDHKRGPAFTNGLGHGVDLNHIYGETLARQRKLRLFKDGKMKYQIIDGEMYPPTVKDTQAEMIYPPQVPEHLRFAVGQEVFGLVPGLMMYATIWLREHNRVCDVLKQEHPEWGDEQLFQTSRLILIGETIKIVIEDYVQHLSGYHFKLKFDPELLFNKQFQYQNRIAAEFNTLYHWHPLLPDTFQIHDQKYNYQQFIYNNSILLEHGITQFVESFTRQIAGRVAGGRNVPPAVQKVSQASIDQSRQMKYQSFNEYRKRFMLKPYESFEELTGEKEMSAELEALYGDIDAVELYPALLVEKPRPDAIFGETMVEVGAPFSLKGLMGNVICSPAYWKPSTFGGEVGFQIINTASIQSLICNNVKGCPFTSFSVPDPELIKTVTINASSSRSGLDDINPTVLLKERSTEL

[5] = molecular target: T2, Dectin-1 (Mus musculus, UniProt Q6QLQ4); assay: Stimulation of Apc^Min/+ polyp-infiltrating leukocytes / CD11b+ cells with Curdlan, with or without laminarin pre-treatment, qPCR; type: cell-based; details: laminarin 4 hours before Curdlan, polyp-infiltrating leukocytes
T2 construct: CD11b^+ cells and CD11c^+ cells were purified from colorectal polyps with autoMACS; endogenous in cells; host or cells: primary CD11b+/CD11c+ cells or all polyp-infiltrating cells from colorectal/intestinal polyps of WT (C57BL/6J, AOM-DSS) or Apc^Min/+ mice
T2 sequence (Q6QLQ4 1-244): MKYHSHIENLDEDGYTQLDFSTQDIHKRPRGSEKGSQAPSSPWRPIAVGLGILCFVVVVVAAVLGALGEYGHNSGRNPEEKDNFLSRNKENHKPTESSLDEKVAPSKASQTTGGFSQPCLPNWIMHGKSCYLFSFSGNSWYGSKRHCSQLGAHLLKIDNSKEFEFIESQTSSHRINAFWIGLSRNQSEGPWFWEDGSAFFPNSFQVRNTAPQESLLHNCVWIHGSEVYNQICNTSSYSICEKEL
Description: (§4) FIG. 5f: All polyp-infiltrating cells of the Apc^Min/+ mice were collected, and were stimulated with Curdlan for 20 hours, and then the expression of the genes involved in the PGE2 synthesis was measured by qPCR. A laminarin treatment was performed for 4 hours before the Curdlan treatment.
as §4, with “5g: Purified CD11b^+” for “5f: All”, “treatment. The data in (FIGS. 5a to 5g) are representative of two independent experiments and expressed as mean±SD. *p<0.05, **p<0.01, and ***p<0.001.” for “treatment.”
as §1, with “later. […]” for “later.”

[6] = molecular target: T2, Dectin-1; assay: Stimulation of mouse colorectal polyp CD11b+ and CD11c+ cells with OXCA, with or without laminarin pre-treatment, qPCR; type: cell-based; details: laminarin for 3 hours before OXCA 16 hours
Description: FIG. 2d: WT SPF mice were administered with AOM, followed by three cycles of DSS. After 11 weeks, the mice were sacrificed, and CD11b^+ cells and CD11c^+ cells were purified from colorectal polyps with autoMACS. The purified cells were stimulated with an agonistic β-glucan OXCA, or were treated with an antagonistic β-glucan laminarin for 3 hours followed by the stimulation with OXCA for 16 hours, and the expression of Il6 and Il1b was measured by qPCR. The data in (FIGS. 2a to 2d) are representative of two independent experiments, and the data in (FIGS. 2a, 2b, and 2d) are expressed as mean±SD. *p<0.05, **p<0.01, ***p<0.001, and ****p<0.0001.
FIG. 4h: C57BL/6J mice were administered with AOM, and were administered with DSS for three cycles. […] The cells were then stimulated with OXCA and expression of Il-22 bp was measured by qPCR. […] The data in (FIG. 4a and FIGS. 4d to 4h) are representative of two independent experiments, and the data in (FIGS. 4a, 4d, and 4f to 4h) are expressed as mean±SD. **p<0.01, ***p<0.001, and ****p<0.0001.
FIG. 11d: WT mice administered with AOM followed by DSS for three cycles for 12 weeks were sacrificed, and colon CD11b^+ and CD11c^+ myeloid-derived cells were purified by autoMACS. […] The data in (FIGS. 11a, 11c, and 11d) are expressed as mean±SD. *p<0.05, **p<0.01, and ***p<0.001. […]

[7] = test system: AOM-DSS-induced colorectal polyps; assay: AOM-3DSS colorectal tumor model, diet supplemented with 5% laminarin; type: in vivo, mouse
Description: FIG. 6a: Oral administration of laminarin suppresses tumor formation in the large intestine, and PGE2 administration promotes tumor formation. AOM was administered to C57BL/6J mice, and 5% by mass of laminarin-containing powdered food was administered (continued for 10 days/cycle) from 3 days before to the end of the one-week administration of DSS, for three cycles in total. At Week 11 from the first AOM administration, the mice were sacrificed and the generation of tumors in the large intestines was observed macroscopically (n=7/group).
FIG. 6b: AOM was administered to C57BL/6J mice, and 5% by mass of laminarin-containing powdered food was administered (continued for 10 days/cycle) from 3 days before to the end of the one-week administration of DSS, for three cycles in total. At Week 11 from the first AOM administration, the mice were sacrificed and the number of the colorectal polyps with indicated sizes was counted (n=7/group).
FIG. 6c: AOM was administered to C57BL/6J mice, and 5% by mass of laminarin-containing powdered food was administered (continued for 10 days/cycle) from 3 days before to the end of the one-week administration of DSS, for three cycles in total. The mice were sacrificed at Week 11 after the first AOM administration and the concentration of PGE2 in tissue homogenates was measured by the ELISA (n=7/group).
FIG. 6d: AOM was administered to C57BL/6J mice, and 5% by mass of laminarin-containing powdered food was administered (continued for 10 days/cycle) from 3 days before to the end of the one-week administration of DSS, for three cycles in total. The mice were sacrificed at Week 11 from the first AOM administration and an mRNA expression of CD11b (Itgam) was examined by qPCR (n=7/group). […]
Polyp and non-polyp tissues from mouse colon were harvested and were put into 2 ml tubes containing 500 μl lysis buffer for protein [RIPA buffer. […] After being centrifuged, supernatant of the tissue homogenate was collected and PGE2 concentration was measured by ELISA Development Kit for PGE2 (R&D systems, Minneapolis, USA). […]

[8] = after PGE2 administration, flow cytometry
[9] = after PGE2 administration, qPCR

Molecule: CCCCC[C@H](O)/C=C/[C@H]1[C@H](O)CC(=O)[C@@H]1C/C=C\CCCC(=O)O [PGE2, prostaglandin E2]
- Il-22 bp expression [1]: directly inhibited
- expression of MDSC markers Arg1, CD11b and Nos2 [1]: directly induced
- expression of CD33 and CD11B (ITGAM) ([2]; PGE2 20 hours in vitro): directly induced
- human IL-22BP expression ([2]; PGE2 20 hours, dose-dependent): suppressed
- polyp number ([3]; PGE2 intraperitoneally every other day for 4 weeks, DSS-treated Apc^Min/+Clec7a^-/- mice): increased to the similar level of that in Apc^Min/+ mice
- infiltration of CD11b+ MDSCs in polyps [3, 8]: promoted
- infiltration of CD11c+ DCs and T cells in polyps [3, 8]: suppressed
- Il-22 bp expression [3, 9]: suppressed
- expression of CD11b (Itgam), Arginase-1 (Arg1), Cyclin D1 (Ccnd1) and c-Myc (Myc) [3, 9]: enhanced

Molecule: CC(=O)Oc1ccccc1C(=O)O [aspirin]
- occurrence or progression of colorectal cancer and polyps [4]: can reduce

Molecule: Laminarin
- effect on Curdlan-induced Ptges3, Ptgs1 and Ptgs2 expression [5]: inhibited
- effect on OXCA-induced Il6 and Il1b expression [6]: inhibited
- burden of colorectal polyps versus control mice ([7]; 5% laminarin diet during 3 cycles of DSS, WT mice, AOM-3DSS): significantly lower
- intestinal PGE2 production (tissue homogenate, ELISA) ([7]; 5% laminarin diet, AOM-3DSS mice): suppressed
- CD11b (Itgam) expression ([7]; 5% laminarin diet, AOM-3DSS mice, qPCR): reduction
